In patent US20230303569A1, “HETEROCYCLIC COMPOUNDS AS THERAPEUTIC AGENTS” (Arisan Therapeutics Inc., priority 2021, published 2023):
Read-outs that look alike come from different tables or passages of the source.

How the values were obtained:
human Nav1.6 = molecular target: T1, human Nav1.6 (Homo sapiens, UniProt Q9UQD0); assay: Two pulse assay protocol, Nav1.6; type: cell-based; conditions: peak current
T1 construct: host or cells: HEK293
Procedure: (§1) In vitro Na+ Current Inhibition Assays were performed by Eurofins Discovery (St Charles, MO). All compound functional activity determinations were determined through electrophysiological analyses of Na+ currents in HEK293 cells expressing a stably transfected Na+ channel (human Nav1.1, 1.2, 1.3, 1.5, 1.6, 1.7, or 1.8). After harvesting with Accutase cells are maintained in serum free medium at room temperature prior to electrophysiological recording utilizing the QPatch HT automated whole-cell patch-clamp platform (Sophion Bioscience, Woburn MA). Stock solution aliquots of the test compound are prepared in DMSO at 300× the final assay concentrations, and stored at −20° C. until the day of assay. On the day of the assay, an aliquot of the stock solution is thawed and diluted into external solution (137 mM NaCl, 4 mM KCl, 1 mM MgCl2, 1.8 mM CaCl2, 10 mM HEPES, 10 mM Glucose (pH 7.3, titrated with 10M NaOH) to make final test concentrations. A final concentration of 0.33% DMSO is maintained for each concentration of the assay compounds. Internal solution for recordings of Na+ consist consists of 100 mM CsF, 45 mM CsCl, 5 mM NaCl, 10 mM HEPES, 5 mM EGTA (pH 7.3, titrated with 1M CsOH).
(§2) Two pulse assay protocol for human Nav1.1, 1.2, 1.3, 1.5, 1.6, 1.7, and 1.8 channels. Mammalian cultured cells expressing the indicated human Nav1.1, 1.2, 1.3, 1.5, 1.6, 1.7 or 1.8 channels were assayed using the The QPatch HT (Sophion Bioscience, Woburn MA) automated system with an intracellular solution (mM) of 100 CsF, 45 CsCl, 5 NaCl, 10 HEPES, 5 EGTA (pH 7.3, titrated with 1M CsOH) and extracellular solution (mM) of 137 NaCl, 4 KCl, 1 MgCl2, 1.8 CaCl2, 10 HEPES, 10 Glucose (pH 7.3, titrated with 10M NaOH). Onset and steady state block of the sodium channel was measured using a pulse pattern, repeated every 20 seconds (s) from a holding potential of −120 mV for 100 ms, and then pulsed to 0 mV for 500 ms to inactivate the Na channels and facilitate inactivated state-dependent binding of the test compounds. The cell membranes were then stepped back to −120 mV for 10 ms to recover from inactivation into resting or closed state (channels with test compound bound to them will not recover from inactivation and will not open) before stepping to 0 mV for 50 ms (pulse 2) to measure Na channels that are available to open. Peak current was measured during the step to 0 mV at pulse 1 and 2 to measure tonic and state-dependent inhibition. Compound activities were assessed by dividing post current amplitude (at the end of each five (5) minute compound application) by the vehicle control amplitude and the mean calculated for each compound concentration. Tetracaine was used as a positive control and was tested concurrently with the test compounds. Current amplitudes in excess of 200 pA at the control stage were analyzed. The amplitude of the current was calculated by measuring the difference between the peak inward current on stepping to 0 mV (i.e. peak of the current) and remaining current at the end of the step. The current was assessed in vehicle control conditions and then at the end of each five (5) minute compound application.

human Nav1.8 = molecular target: T2, human Nav1.8 (Homo sapiens, UniProt Q9Y5Y9); assay: Two pulse assay protocol, Nav1.8; type: cell-based; conditions: peak current
T2 construct: host or cells: HEK293
Procedure: as §1, §2

[1] = pulse 1 (tonic), read-out: percent inhibition hNav1.6, Pulse 1 (5 uM)
[2] = pulse 2 (state-dependent), read-out: percent inhibition hNav1.6, Pulse 2 (5 uM)
[3] = pulse 1 (tonic), read-out: percent inhibition hNav1.8, Pulse 1 (5 uM)
[4] = pulse 2 (state-dependent), read-out: percent inhibition hNav1.8, Pulse 2 (5 uM)
[5] = pulse 1 (tonic), read-out: percent inhibition hNav1.6, Pulse 1 (2.5 uM)
[6] = pulse 2 (state-dependent), read-out: percent inhibition hNav1.6, Pulse 2 (2.5 uM)

T2 sequence (Q9Y5Y9 whole entry): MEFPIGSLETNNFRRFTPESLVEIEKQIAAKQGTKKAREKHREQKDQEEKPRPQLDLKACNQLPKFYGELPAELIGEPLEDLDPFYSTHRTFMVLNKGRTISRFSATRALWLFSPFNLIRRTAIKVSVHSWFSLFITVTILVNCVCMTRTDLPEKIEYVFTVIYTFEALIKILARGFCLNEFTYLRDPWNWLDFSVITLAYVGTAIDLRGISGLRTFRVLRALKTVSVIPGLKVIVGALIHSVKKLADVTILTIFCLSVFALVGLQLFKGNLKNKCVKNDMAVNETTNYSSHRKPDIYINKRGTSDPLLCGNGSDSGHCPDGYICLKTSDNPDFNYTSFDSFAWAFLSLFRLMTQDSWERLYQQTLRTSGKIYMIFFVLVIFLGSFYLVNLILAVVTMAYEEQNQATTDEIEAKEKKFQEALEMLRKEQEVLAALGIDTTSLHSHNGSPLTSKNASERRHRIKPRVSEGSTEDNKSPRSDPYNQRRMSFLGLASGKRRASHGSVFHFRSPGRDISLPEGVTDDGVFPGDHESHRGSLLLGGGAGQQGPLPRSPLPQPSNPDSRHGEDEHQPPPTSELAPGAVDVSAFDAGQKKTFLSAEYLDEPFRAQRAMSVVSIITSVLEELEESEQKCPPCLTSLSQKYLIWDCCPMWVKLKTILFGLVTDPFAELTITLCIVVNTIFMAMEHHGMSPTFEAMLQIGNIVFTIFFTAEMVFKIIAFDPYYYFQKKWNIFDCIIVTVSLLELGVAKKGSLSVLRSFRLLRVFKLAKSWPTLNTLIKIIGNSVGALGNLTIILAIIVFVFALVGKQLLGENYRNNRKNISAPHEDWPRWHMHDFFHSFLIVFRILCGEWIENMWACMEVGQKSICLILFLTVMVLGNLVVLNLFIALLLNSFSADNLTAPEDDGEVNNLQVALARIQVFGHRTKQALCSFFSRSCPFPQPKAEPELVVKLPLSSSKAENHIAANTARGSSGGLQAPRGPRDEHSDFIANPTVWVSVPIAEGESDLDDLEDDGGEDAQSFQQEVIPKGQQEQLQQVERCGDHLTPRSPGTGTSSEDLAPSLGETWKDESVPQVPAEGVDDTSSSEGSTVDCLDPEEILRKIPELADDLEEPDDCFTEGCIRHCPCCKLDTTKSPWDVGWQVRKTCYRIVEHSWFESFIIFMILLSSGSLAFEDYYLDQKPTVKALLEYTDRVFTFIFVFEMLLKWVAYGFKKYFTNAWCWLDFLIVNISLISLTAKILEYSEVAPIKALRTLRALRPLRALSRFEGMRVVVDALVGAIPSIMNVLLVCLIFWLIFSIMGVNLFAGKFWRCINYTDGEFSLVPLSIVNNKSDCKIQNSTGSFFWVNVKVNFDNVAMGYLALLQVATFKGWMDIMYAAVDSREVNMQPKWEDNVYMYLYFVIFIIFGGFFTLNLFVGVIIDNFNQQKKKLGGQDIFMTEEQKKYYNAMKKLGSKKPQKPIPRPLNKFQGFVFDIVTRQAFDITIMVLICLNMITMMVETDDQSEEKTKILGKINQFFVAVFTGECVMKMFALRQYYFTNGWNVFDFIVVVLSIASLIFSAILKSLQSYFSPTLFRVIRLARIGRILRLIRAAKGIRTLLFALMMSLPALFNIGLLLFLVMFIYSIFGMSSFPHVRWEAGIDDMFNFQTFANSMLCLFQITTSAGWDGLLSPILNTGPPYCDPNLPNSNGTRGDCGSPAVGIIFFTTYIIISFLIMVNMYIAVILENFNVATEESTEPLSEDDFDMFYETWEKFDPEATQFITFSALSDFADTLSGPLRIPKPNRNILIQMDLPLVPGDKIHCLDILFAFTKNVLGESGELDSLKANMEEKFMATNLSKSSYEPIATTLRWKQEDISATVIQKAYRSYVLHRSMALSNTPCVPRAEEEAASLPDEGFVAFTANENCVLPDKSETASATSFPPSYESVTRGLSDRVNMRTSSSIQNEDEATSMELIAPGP
T1 sequence (Q9UQD0 whole entry): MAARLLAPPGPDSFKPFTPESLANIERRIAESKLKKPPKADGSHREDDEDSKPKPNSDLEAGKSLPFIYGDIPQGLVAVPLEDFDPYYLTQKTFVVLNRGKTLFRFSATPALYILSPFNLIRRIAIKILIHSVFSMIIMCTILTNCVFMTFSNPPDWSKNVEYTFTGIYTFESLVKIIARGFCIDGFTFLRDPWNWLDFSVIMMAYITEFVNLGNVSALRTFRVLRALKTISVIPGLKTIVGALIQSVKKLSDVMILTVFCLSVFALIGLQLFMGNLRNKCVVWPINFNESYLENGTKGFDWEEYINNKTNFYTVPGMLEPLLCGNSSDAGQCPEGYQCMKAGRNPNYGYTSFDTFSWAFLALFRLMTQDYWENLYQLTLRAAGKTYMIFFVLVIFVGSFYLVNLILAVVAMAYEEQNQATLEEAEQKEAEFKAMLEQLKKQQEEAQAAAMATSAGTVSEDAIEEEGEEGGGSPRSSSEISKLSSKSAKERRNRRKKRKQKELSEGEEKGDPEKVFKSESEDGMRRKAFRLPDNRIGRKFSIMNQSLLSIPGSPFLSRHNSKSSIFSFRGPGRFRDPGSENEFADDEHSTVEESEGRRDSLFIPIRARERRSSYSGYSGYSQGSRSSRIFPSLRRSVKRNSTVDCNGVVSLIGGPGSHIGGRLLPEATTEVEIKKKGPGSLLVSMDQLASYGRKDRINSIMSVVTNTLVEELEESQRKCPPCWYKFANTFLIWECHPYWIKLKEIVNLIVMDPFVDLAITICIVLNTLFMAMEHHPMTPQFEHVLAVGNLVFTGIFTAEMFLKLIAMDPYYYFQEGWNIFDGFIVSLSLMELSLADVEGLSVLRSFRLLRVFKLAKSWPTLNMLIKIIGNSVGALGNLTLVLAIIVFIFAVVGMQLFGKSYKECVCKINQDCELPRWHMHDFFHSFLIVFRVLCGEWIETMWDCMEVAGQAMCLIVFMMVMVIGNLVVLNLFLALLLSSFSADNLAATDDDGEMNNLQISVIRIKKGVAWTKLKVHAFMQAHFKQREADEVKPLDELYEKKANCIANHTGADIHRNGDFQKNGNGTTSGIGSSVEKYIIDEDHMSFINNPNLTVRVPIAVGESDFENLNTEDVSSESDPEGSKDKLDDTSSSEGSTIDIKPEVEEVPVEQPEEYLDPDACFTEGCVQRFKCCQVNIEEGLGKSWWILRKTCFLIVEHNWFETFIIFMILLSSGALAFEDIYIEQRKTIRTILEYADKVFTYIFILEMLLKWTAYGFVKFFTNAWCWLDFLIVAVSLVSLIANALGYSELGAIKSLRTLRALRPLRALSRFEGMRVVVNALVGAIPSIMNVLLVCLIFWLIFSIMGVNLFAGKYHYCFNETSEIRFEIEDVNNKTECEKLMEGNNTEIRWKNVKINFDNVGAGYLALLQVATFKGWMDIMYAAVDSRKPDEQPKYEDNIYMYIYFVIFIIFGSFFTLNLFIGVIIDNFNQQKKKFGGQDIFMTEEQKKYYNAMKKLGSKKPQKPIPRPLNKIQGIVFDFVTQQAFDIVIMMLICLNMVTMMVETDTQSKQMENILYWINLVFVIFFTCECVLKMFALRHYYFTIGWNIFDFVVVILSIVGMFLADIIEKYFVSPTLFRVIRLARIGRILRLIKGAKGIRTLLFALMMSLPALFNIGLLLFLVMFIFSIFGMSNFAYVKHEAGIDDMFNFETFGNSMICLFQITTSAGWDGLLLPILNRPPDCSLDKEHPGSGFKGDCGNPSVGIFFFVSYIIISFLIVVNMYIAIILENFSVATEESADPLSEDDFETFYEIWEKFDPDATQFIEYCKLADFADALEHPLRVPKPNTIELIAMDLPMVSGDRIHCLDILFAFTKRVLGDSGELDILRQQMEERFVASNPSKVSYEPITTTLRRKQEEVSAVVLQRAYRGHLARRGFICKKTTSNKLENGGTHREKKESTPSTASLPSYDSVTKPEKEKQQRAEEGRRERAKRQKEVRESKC

| SMILES | inhibition at 5 µM (human Nav1.6; [1]) [%] | inhibition at 5 µM (human Nav1.6; [2]) [%] | also measured |
| --- | --- | --- | --- |
| CC(C)Oc1ccc(-c2cnc3ccc(-c4ccc(OC(C)(C)C)cc4)cn23)cc1 [Example C21, 6-[4-(tert-butoxy)phenyl]-3-[4-(propan-2-yloxy)phenyl]imidazo[1,2-a]pyridine] | < 50 | > 90 | – |
| COc1cc(OC)cc(-c2ccc3ncc(-c4ccc(OC(F)(F)F)cc4)n3c2)c1 [Example C58, 6-(3,5-dimethoxyphenyl)-3-(4-(trifluoromethoxy)phenyl)imidazo[1,2-a]pyridine] | – | – | inhibition at 5 µM (human Nav1.8; [3]): 50 to 90%; inhibition at 5 µM (human Nav1.8; [4]): 50 to 90%; inhibition at 2.5 µM (human Nav1.6; [5]): < 50%; inhibition at 2.5 µM (human Nav1.6; [6]): > 90% |
| COc1cc(OC)cc(-c2cnc3ccc(-c4ccc(OC(F)(F)F)cc4)cn23)c1 [Example C59, 3-(3,5-dimethoxyphenyl)-6-(4-(trifluoromethoxy)phenyl)imidazo[1,2-a]pyridine] | – | – | inhibition at 5 µM (human Nav1.8; [3]): < 50%; inhibition at 5 µM (human Nav1.8; [4]): < 50% |
| Cc1cc2ncc(-c3ccc(OC(C)(C)C)cc3)n2cc1-c1ccc(OC(C)C)nc1 [Example C78, 3-(4-(tert-butoxy)phenyl)-6-(6-isopropoxypyridin-3-yl)-7-methylimidazo[1,2-a]pyridine] | < 50 | > 90 | – |
| Cc1cc2ncc(-c3ccc(OC(C)(C)C)cc3)n2cc1-c1ccc(OC(C)C)c(F)c1 [Example C79, 3-(4-(tert-butoxy)phenyl)-6-(3-fluoro-4-isopropoxyphenyl)-7-methylimidazo[1,2-a]pyridine] | < 50 | 50 to 90 | – |
| CC(C)Oc1ccc(-c2ccc3ncc(-c4ccc(OC(C)(C)C)cc4)n3c2)cc1F [Example C81, 3-(4-(tert-butoxy)phenyl)-6-(3-fluoro-4-isopropoxyphenyl)imidazo[1,2-a] pyridine] | < 50 | > 90 | – |
| CC(C)(C)Oc1ccc(-c2ccc3ncc(-c4ccc(OC(C)(C)C)cc4)n3c2)cc1 [Example C82, 3,6-bis(4-(tert-butoxy)phenyl)imidazo[1,2-a]pyridine] | < 50 | > 90 | – |
| CC(C)Oc1ccc(-c2ccc3ncc(-c4ccc(OC(C)(C)C)cc4)n3c2)cn1 [Example C83, 3-(4-(tert-butoxy)phenyl)-6-(6-isopropoxypyridin-3-yl)imidazo[1,2-a]pyridine] | < 50 | 50 to 90 | – |
| Cc1cc2ncc(-c3ccc(OC(C)(C)C)nc3)n2cc1-c1ccc(OC(C)C)cc1 [Example C84, 3-(6-(tert-butoxy)pyridin-3-yl)-6-(4-isopropoxyphenyl)-7-methylimidazo[1,2-a]pyridine] | < 50 | 50 to 90 | – |
| Cc1cc2ncc(-c3ccc(OC(C)(C)C)nc3)n2cc1-c1ccc(OC(C)C)c(F)c1 [Example C85, 3-(6-(tert-butoxy)pyridin-3-yl)-6-(3-fluoro-4-isopropoxyphenyl)-7-methylimidazo[1,2-a]pyridine] | < 50 | 50 to 90 | – |
| CC(C)(C)Oc1ccc(-c2cnc3ccc(-c4cnc(OCC(F)(F)F)c(F)c4)cn23)cc1 [Example C86, 3-(4-(tert-butoxy)phenyl)-6-(5-fluoro-6-(2,2,2-trifluoroethoxy)pyridin-3-yl)imidazo[1,2-a]pyridine] | < 50 | > 90 | – |
| CC(C)Oc1ccc(-c2cn3c(-c4ccc(OC(C)(C)C)cc4)cnc3cc2Cl)cc1 [Example C91, 3-(4-(tert-butoxy)phenyl)-7-chloro-6-(4-isopropoxyphenyl)imidazo[1,2-a]pyridine] | – | – | inhibition at 2.5 µM (human Nav1.6; [5]): < 50%; inhibition at 2.5 µM (human Nav1.6; [6]): < 50% |
| Cc1cc2ncc(-c3ccc(OC(C)(C)C)cc3)n2nc1-c1ccc(OC(C)C)cc1 [Example D23, 3-(4-(tert-butoxy)phenyl)-6-(4-isopropoxyphenyl)-7-methylimidazo[1,2-b]pyridazine] | < 50 | 50 to 90 | – |

More lines, main results first:

| inhibition at 5 µM (human Nav1.6; [1]) [%] | inhibition at 5 µM (human Nav1.6; [2]) [%] | SMILES | also measured |
| --- | --- | --- | --- |
| < 50 | > 90 | CC(C)Oc1ccc(-c2ccc3ncc(-c4ccc(OC(C)C)cc4)n3c2)cc1 [Example C2, 3,6-bis[4-(propan-2-yloxy)phenyl]imidazo[1,2-a]pyridine] | – |
| < 50 | 50 to 90 | Cc1cc(OC(C)C)ccc1-c1ccc2ncc(-c3ccc(OC(C)C)cc3)n2c1 [Example C18, 6-[2-methyl-4-(propan-2-yloxy)phenyl]-3-[4-(propan-2-yloxy)phenyl]imidazo[1,2-a]pyridine] | – |
| < 50 | < 50 | CC(C)Oc1ccc(-c2cnc3ccc(-c4ccc(OC(C)C)cc4F)cn23)cc1 [Example C23, 6-[2-fluoro-4-(propan-2-yloxy)phenyl]-3-[4-(propan-2-yloxy)phenyl]imidazo[1,2-a]pyridine] | – |
| < 50 | 50 to 90 | Cc1cc2ncc(-c3ccc(OC(C)C)cc3)n2cc1-c1ccc(OC(C)C)cc1 [Example C48, 7-methyl-3,6-bis[4-(propan-2-yloxy)phenyl]imidazo[1,2-a]pyridine] | – |
| < 50 | < 50 | Cc1cc(-c2ccc(OC(C)C)cc2)cn2c(-c3ccc(OC(C)C)cc3)cnc12 [Example C50, 8-methyl-3,6-bis[4-(propan-2-yloxy)phenyl]imidazo[1,2-a]pyridine] | – |
| < 50 | < 50 | Cc1c(-c2ccc(OC(C)C)cc2)ccc2ncc(-c3ccc(OC(C)C)cc3)n12 [Example C51, 5-methyl-3,6-bis[4-(propan-2-yloxy)phenyl]imidazo[1,2-a]pyridine] | – |
| < 50 | 50 to 90 | CC(C)Oc1ccc(-c2ccc3ncc(-c4ccc(OC(C)C)nc4F)n3c2)cc1 [Example C74, 3-(2-fluoro-6-isopropoxypyridin-3-yl)-6-(4-isopropoxyphenyl)imidazo[1,2-a]pyridine] | – |
| < 50 | 50 to 90 | CC(C)Oc1ccc(-c2ccc3ncc(-c4cnc(OC(C)C)nc4)n3c2)cc1 [Example C75, 6-(4-isopropoxyphenyl)-3-(2-isopropoxypyrimidin-5-yl)imidazo[1,2-a]pyridine] | – |
| < 50 | > 90 | CC(C)Oc1ccc(-c2ccc3ncc(-c4ccnc(OC(C)C)c4)n3c2)cc1 [Example C76, 6-(4-isopropoxyphenyl)-3-(2-isopropoxypyridin-4-yl)imidazo[1,2-a]pyridine] | – |
| < 50 | 50 to 90 | CC(C)Oc1ccc(-c2ccc3ncc(-c4cncc(OC(C)C)c4)n3c2)cc1 [Example C77, 6-(4-isopropoxyphenyl)-3-(5-isopropoxypyridin-3-yl)imidazo[1,2-a]pyridine] | – |
| < 50 | < 50 | Cc1cc2ncc(-c3ccc(OC(C)C)cc3)n2cc1-c1ccc(OC(C)C)c(F)c1 [Example C80, 6-(3-fluoro-4-isopropoxyphenyl)-3-(4-isopropoxyphenyl)-7-methylimidazo[1,2-a]pyridine] | – |
| < 50 | > 90 | CC(C)Oc1ccc(-c2ccc3ncc(-c4ccc(Oc5ccccc5)nc4)n3c2)cc1 [Example C88, 6-(4-isopropoxyphenyl)-3-(6-phenoxypyridin-3-yl)imidazo[1,2-a]pyridine] | – |
| < 50 | > 90 | CC(C)Oc1ccc(-c2ccc3ncc(-c4ccc(OC(C)C)cc4)n3n2)cc1 [Example D10, 3,6-bis[4-(propan-2-yloxy)phenyl]imidazo[1,2-b]pyridazine] | – |
